Reference: patent publication US11684682B2, “Chelating AAZTA conjugates and complexes thereof” (BRACCO IMAGING S.P.A., priority 2018, dated 2023)
Like-named read-outs stand apart in the source and are kept apart here.

Key:
[1] = Equilibrium study of Bi(AAZTA): competition of AAZTA with NTA for Bi^3+ by UV-spectrophotometry; format: physicochemical; settings: 0.15 M NaClO4
Procedure: The stability constant of Bi(AAZTA) was determined by following the competition reaction of AAZTA with NTA for Bi^3+ (Eq. (10)) with UV-spectrophotometry in the wavelength range of 210-350 nm. The concentration of Bi^3+ and NTA was 30.2 μM and 10 mM while that of the AAZTA was varied between 0 and 50 μM (6×2 mL samples with the addition of AAZTA to the pre-prepared Bi(NTA)2 complex) in 0.15 M NaClO4 solution. The pH was adjusted to pH=7.4 by stepwise addition of concentrated NaOH or HClO4. The samples were kept at 50° C. for a week and at 25° C. for two weeks in order to attain the equilibrium (the time needed to reach the equilibria was determined by spectrophotometry). The spectrophotometric measurements were made with the use of PerkinElmer Lambda 365 UV-Vis spectrophotometer at 25° C., using 1.0 cm cells. For the equilibrium calculation, the protonation constants of AAZTA and NTA ligands (AAZTA: log K1^H=10.29, log K2^H=6.51, log K3^H=3.86, log K4^H=1.94, log K5^H=1.00; NTA: log K1^H=9.22, log K2^H=2.98, log K3^H=1.06; 25° C., 0.15 M NaClO4) and the stability constants of Bi(NTA) and Bi(NTA)2 complexes (log KBi(NTA)=16.97, log βBi(NTA)2=26.21, 25° C., 0.15 M NaClO4) have been determined as it is described in the literature (Baranyai, Eur. J. Inorg. Chem., 2013, 147-162, KARADAKOV, Talanta, 1970, 17, 883-887). The equilibrium constants were calculated with the program PSEQUAD (L. Zekany and I. Nagypal in PSEQUAD, Vol. (Ed. D. Leggett), Springer US, 1985, pp. 291-353). Bi(NTA)2+HxAAZTA ? Bi(AAZTA)+2HyNTA (10) Thermodynamic stability constant of Bi(AAZTA) calculated from the UV-spectrophotometric studies of Bi^3+-NTA-AAZTA systems is log KBi(AAZTA)=26.45 (6) at 25° C. in 0.15 M NaClO4. By taking into account the protonation constant of AAZTA ligand (log K1^H=10.29, log K2^H=6.51, log K3^H=3.86, log K4^H=1.94, log K5^H=1.00, 25° C., 0.15 M NaClO4) and the stability constant of Bi(AAZTA) (log KBi(AAZTA)=26.45, 25° C. in 0.15 M NaClO4), the conditional stability constant of Bi(AAZTA) was calculated to be log K^condBi(AAZTA)=log KBi(AAZTA)/(1+αH)=23.5 at pH=7.4 and 25° C. in 0.15 M NaClO4 (αH=K1^H[H^+]+K1^HK2^H[H^+]^2+ . . . +K1^HK2^H . . . Kn^H[H^+]^n and K1^H, K2^H, . . . Kn^H are the protonation constant of the free ligand at pH=7.4 in 0.15 M NaClO4 solution).

[2] = format: physicochemical; settings: 25° C., 0.15 M NaCl
Text: The thermodynamic properties of Sc(AAZTA-TATE) complex were characterized by the conditional stability constant (log K^cond=log K^therm/(1+αH) where αH=K1^H[H^+]+K1^HK2^H[H^+]^2+ . . . +K1^HK2^H . . . Kn^H[H^+]^n and K1^H, K2^H, . . . Kn^H are the protonation constant of the free ligand) at pH=7.4 in 0.15 M NaCl solution. To determine the log K^cond value of Sc(AAZTA-TATE) complex, the competition reaction of AAZTA-TATE with NTA for Sc^3+ have been studied by ^45Sc NMR spectroscopy (Bruker Avance III 400 spectrometer at 9.4 T) with the integral of Sc(NTA)2 complex (δSc=59.9 ppm) formed in the reactions (Eq. (4), H3NTA=nitrilo-triacetic acid, pH=7.4, 25° C., 0.15 M NaCl).
[formula] For the equilibrium characterization of Sc(AAZTA-TATE), 7 samples were prepared in which the concentration of Sc^3+ and AAZTA-TATE was 203.3 μM and 206.2 μM, while that of the NTA was varied between 0.0 and 20.06 mM (7×1 mL samples were prepared by the addition of AAZTA-TATE to the pre-prepared Sc(NTA)2 complex) in 0.15 M NaCl solution. […] The samples were kept at 25° C. for 8 weeks in order to attain the equilibrium (the time needed to reach the equilibria was determined by ^45Sc NMR spectroscopy).
To compare the equilibrium properties of Sc(AAZTA-TATE) with that of Sc(AAZTA), the conditional stability constant of Sc(AAZTA) was determined by following the competition reaction of AAZTA with NTA for Sc^3+ with ^45Sc NMR spectroscopy by using the integral of Sc(NTA)2 complex (δSc=59.9 ppm) formed in the reactions (Eq. (5), pH=7.4, 25° C., 0.15 M NaCl).
For the equilibrium characterization of Sc(AAZTA), 7 samples were prepared in which the concentration of Sc^3+ and AAZTA was 203.3 μM and 207.1 μM, while that of the NTA was varied between 0 and 20.06 mM (7×2 mL samples with the addition of AAZTA to the pre-prepared […] complex) in 0.15 M NaCl solution. […] The samples were kept at 25° C. for 8 weeks in order to attain the equilibrium (the time needed to reach the equilibria was determined by ^45Sc NMR spectroscopy). […]

[3] = 0.15 M NaCl, 25° C.; cited from earlier work
[4] = Transchelation reaction between Bi(AAZTA) and DTPA by UV-spectrophotometry; format: physicochemical; settings: pH=9.0, 25° C., 0.15 M NaClO4
Procedure: The kinertic properties of Bi(AAZTA) was determined by following the transchelation reaction between Bi(AAZTA) and DTPA with UV-spectrophotometry at 278 nm and 25° C. in 0.15 M NaClO4 solution (stability constant of Bi(DTPA) is log KBi(DTPA)=29.3 at 25° C. in 0.6 M NaClO4, V. Kornev, A. Troubachev, Russ. J. Inorg. Chem, 1987, 32, 1419). In these experiments the concentration of Bi(AAZTA) was 0.1 mM while DTPA was applied in 10 and 20 fold excess to ensure the occurrence of pseudo-first order conditions. The pH was adjusted to 8.5, 9.0, 9.5, 10.0, 10.5 and 11.0 by stepwise addition of concentrated NaOH or HClO4. For keeping the pH values constant 0.01 M N-methyl-piperazine (pH≤10) buffers were used. At pH>10, buffer was not used to keep the constant pH due to the presence of OH^− in a high concentration. The pseudo-first-order rate constants (kd) were calculated by fitting the absorbance—time data sets for Bi(AAZTA)—DTPA system to Eq. (9). The dissociation rates (kd) of Bi(AAZTA) complex is independent from the [DTPA] and increase with the increase of pH.

O=C(O)CN(CC(=O)O)CC(=O)O [NTA, nitrilo-triacetic acid, reference compound]
log K1^H (protonation constant) ([1]; NTA ligand, 25° C.): 9.22 | log K2^H (protonation constant) ([1]; NTA ligand, 25° C.): 2.98 | log K3^H (protonation constant) ([1]; NTA ligand, 25° C.): 1.06 | log K1^H (protonation constant) [2]: 9.13 (1) | log K2^H (protonation constant) [2]: 2.63 (2) | log K3^H (protonation constant) [2]: 1.64 (3)

CC1(N(CC(=O)O)CC(=O)O)CN(CC(=O)O)CCN(CC(=O)O)C1 [AAZTA, 6-amino-6-methylperhydro-1,4-diazepinetetraacetic acid]
log K1^H (protonation constant) ([1]; 25° C.): 10.29 | log K2^H (protonation constant) ([1]; 25° C.): 6.51 | log K3^H (protonation constant) ([1]; 25° C.): 3.86 | log K4^H (protonation constant) ([1]; 25° C.): 1.94 | log K5^H (protonation constant) ([1]; 25° C.): 1.00 | log K1^H (protonation constant) [3]: 9.98 | log K2^H (protonation constant) [3]: 6.52 | log K3^H (protonation constant) [3]: 3.76 | log K4^H (protonation constant) [3]: 2.21

CC1(N(CC(=O)[O-])CC(=O)[O-])CN(CC(=O)[O-])CCN(CC(=O)[O-])C1.[Bi+3] [Bi(AAZTA)]
log KBi(AAZTA) (thermodynamic stability constant) ([1]; 25° C.): 26.45 (6) | log K^cond (conditional stability constant) ([1]; pH=7.4, 25° C.): 23.5 | kd (rate constant of dissociation) [4]: 1.67e-06 s⁻¹
